# From patent US11613531B2, “Inhibitors of RHO associated coiled-coil containing protein kinase” (Kadmon Corporation, LLC, priority 2017, dated 2023)
# Tested on: ppMlc (T18/S19) levels in A7R5 cells
# Experiment: A7R5 in-cell ELISA (pMLC)
# Type: cell-based, Rat
# Settings: Rattus norvegicus, A7R5, A7R5 cells, 1 μM compound; read-out: pMLC % inh A7R5 @ [conc]
# Experimental: Determination of Compounds ROCK Inhibitory Activity in A7R5Cells.
# Rat aortic smooth muscle cell line, A7R5, cells were seeded with density of 5,000 cells/well in a 96-well plates for 24 hours and subsequently treated for 90 min with testing compounds. Cells were then fixed and processed according to the In-Cell ELISA Colorimetric Detection Kit manual (Thermo Scientific).
# An A7R5 in-cell Elisa assay was performed. A7R5 cells were treated with 9 points 2 fold serial dilution of compounds and ppMlc (T18/S19) levels were determined to calculate cellular IC50 values of the compounds. Compounds of the invention gave in cell IC50s under 100 nM.
# In vitro activities for the compounds were measured with Z′-lyte kinase kit (ThermoFisher Scientific). The percent inhibition rate was calculated by normalizing the kinase activity value obtained with 1 μM compound treatment against DMSO control value and then applied to the formula, [1-(compound/DMSO)]×100%. IC50s were calculated using the nonlinear regression curve fit function of the GraphPad Prism software with kinase activities data measured with 9 points 2-fold serial dilution of compounds treatment. In cell pMLC IC50s were calculated with data obtained from A7R5 cell experiments. A7R5 cells were treated with 9 points 2-fold serial dilution of compounds and ppMlc (T18/S19) levels were determined to calculate cellular IC50 values of the compounds using the nonlinear regression curve fit function of the GraphPad Prism software. NIH3T3 cells stably expressing ACTA2-promoter-driven-luciferase were applied to measure ROCK compounds functional IC50s in cells. Cells were plated in 96 well plates to confluence and treated with 9 points serial dilution of compounds in combination with TGFβ1 for 24 hr. Luciferase activities were measured and compound's IC50s were calculated using the nonlinear regression curve fit function of the GraphPad Prism software.
row,Structure (SMILES),inhibition at 1 µM
1,"Cc1cc(Nc2ccc3[nH]ncc3c2)nc(N2CC3(CCNC3)C2)n1 [Example 126, N-(6-methyl-2-(2,6-diazaspiro[3.4]octan-2-yl)pyrimidin-4-yl)-1H-indazol-5-amine]",-12.3%
2,"Cc1cc(Nc2ccc3[nH]ncc3c2)nc(N2CC3(CCNCC3)C2)n1 [Example 127, N-(6-methyl-2-(2,7-diazaspiro[3.5]nonan-2-yl)pyrimidin-4-yl)-1H-indazol-5-amine]",-7.2%
3,"Cc1cc(Nc2ccc3[nH]ncc3c2)nc(N2CC3(CNC3)C2)n1 [Example 128, N-(6-methyl-2-(2,6-diazaspiro[3.3]heptan-2-yl)pyrimidin-4-yl)-1H-indazol-5-amine]",-8.3%
4,"Cc1cc(Nc2ccc3[nH]ncc3c2)nc(N2CCCC(C3CCCNC3)C2)n1 (stereo not shown) [Example 136, N-(2-([3,3′-bipiperidin]-1-yl)-6-methylpyrimidin-4-yl)-1H-indazol-5-amine]",1.1%
5,"Cc1cc(Nc2ccc3[nH]ncc3c2)nc(N2CC(C3CCCNC3)c3ccccc32)n1 (stereo not shown) [Example 139, N-(6-methyl-2-(3-(piperidin-3-yl)indolin-1-yl)pyrimidin-4-yl)-1H-indazol-5-amine]",2.2%
6,"OCC1CNCCN1c1ncc(F)c(Nc2ccc3[nH]ncc3c2)n1 (stereo not shown) [Example 156, (1-(4-((1H-indazol-5-yl)amino)-5-fluoropyrimidin-2-yl)piperazin-2-yl)methanol]",7.1%
7,"Fc1cnc(N2CCC3(CC2)CNC3)nc1Nc1ccc2[nH]ncc2c1 [Example 158, N-(5-fluoro-2-(2,7-diazaspiro[3.5]nonan-7-yl)pyrimidin-4-yl)-1H-indazol-5-amine]",-1.1%
8,"Fc1cnc(N2CCC3(CNC3)C2)nc1Nc1ccc2[nH]ncc2c1 [Example 159, N-(5-fluoro-2-(2,6-diazaspiro[3.4]octan-6-yl)pyrimidin-4-yl)-1H-indazol-5-amine]",-12.2%
9,"Fc1cnc(N2CCC3(CC2)CNCCO3)nc1Nc1ccc2[nH]ncc2c1 [Example 160, N-(5-fluoro-2-(1-oxa-4,9-diazaspiro[5.5]undecan-9-yl)pyrimidin-4-yl)-1H-indazol-5-amine]",5.9%
10,"Fc1cnc(N2CCC3(CCCNC3)C2)nc1Nc1ccc2[nH]ncc2c1 (stereo not shown) [Example 161, N-(5-fluoro-2-(2,7-diazaspiro[4.5]decan-2-yl)pyrimidin-4-yl)-1H-indazol-5-amine]",2.6%
11,"Fc1cnc(N2CCCC3(CCNC3)C2)nc1Nc1ccc2[nH]ncc2c1 (stereo not shown) [Example 162, N-(5-fluoro-2-(2,7-diazaspiro[4.5]decan-7-yl)pyrimidin-4-yl)-1H-indazol-5-amine]",16.7%
12,"Fc1cnc(N2CC3(CCNC3)C2)nc1Nc1ccc2[nH]ncc2c1 [Example 163, N-(5-fluoro-2-(2,6-diazaspiro[3.4]octan-2-yl)pyrimidin-4-yl)-1H-indazol-5-amine]",-7.8%
13,"Fc1cnc(N2CC3(CCNCC3)C2)nc1Nc1ccc2[nH]ncc2c1 [Example 164, N-(5-fluoro-2-(2,7-diazaspiro[3.5]nonan-2-yl)pyrimidin-4-yl)-1H-indazol-5-amine]",-8.3%
14,"Fc1cnc(N2CC3(CNC3)C2)nc1Nc1ccc2[nH]ncc2c1 [Example 165, N-(5-fluoro-2-(2,6-diazaspiro[3.3]heptan-2-yl)pyrimidin-4-yl)-1H-indazol-5-amine]",-10.2%
15,"Fc1cnc(N2CCC3NCCC3C2)nc1Nc1ccc2[nH]ncc2c1 (stereo not shown) [Example 168, N-(5-fluoro-2-(octahydro-5H-pyrrolo[3,2-c]pyridin-5-yl)pyrimidin-4-yl)-1H-indazol-5-amine]",12.2%
16,"Fc1cnc(N2CCCC(C3CCCNC3)C2)nc1Nc1ccc2[nH]ncc2c1 (stereo not shown) [Example 171, N-(2-([3,3′-bipiperidin]-1-yl)-5-fluoropyrimidin-4-yl)-1H-indazol-5-amine]",-9.6%
17,"Fc1cnc(N2CCC(C3CNC3)C2)nc1Nc1ccc2[nH]ncc2c1 (stereo not shown) [Example 172, N-(2-(3-(azetidin-3-yl)pyrrolidin-1-yl)-5-fluoropyrimidin-4-yl)-1H-indazol-5-amine]",-9.9%

# Same assay, conditions: Rattus norvegicus, A7R5, A7R5 cells, 10 μM compound; read-out: pMLC % inh A7R5 @ [conc]
row,Structure (SMILES),inhibition at 10 µM
1,"Fc1cnc(N2CCCNC(c3ccccc3)C2)nc1Nc1ccc2[nH]ncc2c1 (stereo not shown) [Example 141, N-(5-fluoro-2-(3-phenyl-1,4-diazepan-1-yl)pyrimidin-4-yl)-1H-indazol-5-amine]",54.9%
2,"Fc1cnc(N2CCNC(c3ccccc3)CC2)nc1Nc1ccc2[nH]ncc2c1 (stereo not shown) [Example 142, N-(5-fluoro-2-(5-phenyl-1,4-diazepan-1-yl)pyrimidin-4-yl)-1H-indazol-5-amine]",37.5%
3,"CC(C)C1CN(c2ncc(F)c(Nc3ccc4[nH]ncc4c3)n2)CCCN1 (stereo not shown) [Example 144, N-(5-fluoro-2-(3-isopropyl-1,4-diazepan-1-yl)pyrimidin-4-yl)-1H-indazol-5-amine]",45.6%
4,"CC(C)C1CCN(c2ncc(F)c(Nc3ccc4[nH]ncc4c3)n2)CCN1 (stereo not shown) [Example 145, N-(5-fluoro-2-(5-isopropyl-1,4-diazepan-1-yl)pyrimidin-4-yl)-1H-indazol-5-amine]",42.4%
5,"CC(C)C1CN(c2ncc(Cl)c(Nc3ccc4[nH]ncc4c3)n2)CCCN1 (stereo not shown) [Example 181, N-(5-chloro-2-(3-isopropyl-1,4-diazepan-1-yl)pyrimidin-4-yl)-1H-indazol-5-amine]",36.5%
6,"CC(C)C1CCN(c2ncc(Cl)c(Nc3ccc4[nH]ncc4c3)n2)CCN1 (stereo not shown) [Example 182, N-(5-chloro-2-(5-isopropyl-1,4-diazepan-1-yl)pyrimidin-4-yl)-1H-indazol-5-amine]",30.2%
7,"Clc1cnc(N2CCCNC(c3ccccc3)C2)nc1Nc1ccc2[nH]ncc2c1 (stereo not shown) [Example 183, N-(5-chloro-2-(3-phenyl-1,4-diazepan-1-yl)pyrimidin-4-yl)-1H-indazol-5-amine]",43.1%
8,"Clc1cnc(N2CCNC(c3ccccc3)CC2)nc1Nc1ccc2[nH]ncc2c1 (stereo not shown) [Example 184, N-(5-chloro-2-(5-phenyl-1,4-diazepan-1-yl)pyrimidin-4-yl)-1H-indazol-5-amine]",34.1%
9,"c1ccc(C2CN(c3nccc(Nc4ccc5[nH]ncc5c4)n3)CCN2)cc1 (stereo not shown) [Example 224, N-(2-(3-phenylpiperazin-1-yl)pyrimidin-4-yl)-1H-indazol-5-amine]",48%
10,"CC1CN(c2nccc(Nc3ccc4[nH]ncc4c3)n2)CC(C)N1 (stereo not shown) [Example 226, N-(2-(3,5-dimethylpiperazin-1-yl)pyrimidin-4-yl)-1H-indazol-5-amine]",67.7%
11,"CC1(C)CN(c2nccc(Nc3ccc4[nH]ncc4c3)n2)CCN1 [Example 227, N-(2-(3,3-dimethylpiperazin-1-yl)pyrimidin-4-yl)-1H-indazol-5-amine]",83.4%
12,"OCC1CNCCN1c1nccc(Nc2ccc3[nH]ncc3c2)n1 (stereo not shown) [Example 230, (1-(4-((1H-indazol-5-yl)amino)pyrimidin-2-yl)piperazin-2-yl)methanol]",16.1%
13,"c1ccc(CC2CCNCCN2c2nc3c(c(Nc4ccc5[nH]ncc5c4)n2)COC3)cc1 (stereo not shown) [Example 236, 2-(7-benzyl-1,4-diazepan-1-yl)-N-(1H-indazol-5-yl)-5,7-dihydrofuro[3,4-d]pyrimidin-4-amine]",80.8%
14,"CC1CN(c2nccc(Nc3ccc(-c4cn[nH]c4)cc3)n2)CCN1 (stereo not shown) [Example 252, N-(4-(1H-pyrazol-4-yl)phenyl)-2-(3-methylpiperazin-1-yl)pyrimidin-4-amine]",65%
15,"CC1CNCCN1c1nccc(Nc2ccc(-c3cn[nH]c3)cc2)n1 (stereo not shown) [Example 253, N-(4-(1H-pyrazol-4-yl)phenyl)-2-(2-methylpiperazin-1-yl)pyrimidin-4-amine]",41.5%
16,"CC1(C)CN(c2nccc(Nc3ccc(-c4cn[nH]c4)cc3)n2)CCN1 [Example 255, N-(4-(1H-pyrazol-4-yl)phenyl)-2-(3,3-dimethylpiperazin-1-yl)pyrimidin-4-amine]",72%
17,"CC1CN(c2nccc(Nc3ccc(-c4cn[nH]c4)cc3)n2)CC(C)N1 (stereo not shown) [Example 256, N-(4-(1H-pyrazol-4-yl)phenyl)-2-(3,5-dimethylpiperazin-1-yl)pyrimidin-4-amine]",84.5%
18,"c1cc(Nc2ccc(-c3cn[nH]c3)cc2)nc(N2C3CCC2CNC3)n1 [Example 257, N-(4-(1H-pyrazol-4-yl)phenyl)-2-(3,8-diazabicyclo[3.2.1]octan-8-yl)pyrimidin-4-amine]",85.6%
19,"c1cc(Nc2ccc(-c3cn[nH]c3)cc2)nc(N2CC3CCC(C2)N3)n1 [Example 258, N-(4-(1H-pyrazol-4-yl)phenyl)-2-(3,8-diazabicyclo[3.2.1]octan-3-yl)pyrimidin-4-amine]",26%

# Same assay, conditions: Rattus norvegicus, A7R5, A7R5 cells, ppMlc (T18/S19)
row,Structure (SMILES),IC50
1,"Fc1cnc(N2CCCNC(c3ccccc3)C2)nc1Nc1ccc2[nH]ncc2c1 (stereo not shown) [Example 141, N-(5-fluoro-2-(3-phenyl-1,4-diazepan-1-yl)pyrimidin-4-yl)-1H-indazol-5-amine]",2890 nM
2,"c1ccc(C2CN(c3nccc(Nc4ccc5[nH]ncc5c4)n3)CCN2)cc1 (stereo not shown) [Example 224, N-(2-(3-phenylpiperazin-1-yl)pyrimidin-4-yl)-1H-indazol-5-amine]",3350 nM
3,"c1ccc(CC2CCNCCN2c2nc3c(c(Nc4ccc5[nH]ncc5c4)n2)COC3)cc1 (stereo not shown) [Example 236, 2-(7-benzyl-1,4-diazepan-1-yl)-N-(1H-indazol-5-yl)-5,7-dihydrofuro[3,4-d]pyrimidin-4-amine]",4690 nM
4,"CC1CN(c2nccc(Nc3ccc(-c4cn[nH]c4)cc3)n2)CCN1 (stereo not shown) [Example 252, N-(4-(1H-pyrazol-4-yl)phenyl)-2-(3-methylpiperazin-1-yl)pyrimidin-4-amine]",1170 nM
5,"CC1(C)CN(c2nccc(Nc3ccc(-c4cn[nH]c4)cc3)n2)CCN1 [Example 255, N-(4-(1H-pyrazol-4-yl)phenyl)-2-(3,3-dimethylpiperazin-1-yl)pyrimidin-4-amine]",1360 nM
6,"CC1CN(c2nccc(Nc3ccc(-c4cn[nH]c4)cc3)n2)CC(C)N1 (stereo not shown) [Example 256, N-(4-(1H-pyrazol-4-yl)phenyl)-2-(3,5-dimethylpiperazin-1-yl)pyrimidin-4-amine]",1560 nM
7,"c1cc(Nc2ccc(-c3cn[nH]c3)cc2)nc(N2C3CCC2CNC3)n1 [Example 257, N-(4-(1H-pyrazol-4-yl)phenyl)-2-(3,8-diazabicyclo[3.2.1]octan-8-yl)pyrimidin-4-amine]",2070 nM
